Laboratory results as given in ChEMBL document CHEMBL1201862, “PubChem BioAssay data set” (2004).
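Dose response: 5 concentrations. Exposure: 48 h. Format: 96-well plates. Endpoint: linear interpolation; highest concentration if not reached. The concentration for 50% growth inhibition is given as GI50.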 Calls of active or inactive are those of the source. No stated cut-off is given here; in the data, active = GI50 up to about 1.1 µM and inactive = higher.

Tests used:
Experiment in all cases: NCI-60 cell line screen, 48 h
UACC-62 = test system: UACC-62
SK-MEL-5 = test system: SK-MEL-5
HCT-15 = test system: HCT-15
KM12 = test system: KM12
OVCAR-4 = test system: OVCAR-4
SF-295 = test system: SF-295
786-0 = test system: 786-0
SNB-19 = test system: SNB-19
CCRF-CEM = test system: CCRF-CEM
HT-29 = test system: HT-29
DU-145 = test system: DU-145
MDA-N = test system: MDA-N
OVCAR-5 = test system: OVCAR-5
MCF7 = test system: MCF7
HCC 2998 = test system: HCC 2998
SK-MEL-28 = test system: SK-MEL-28
MDA-MB-435 = test system: MDA-MB-435
A498 = test system: A498
EKVX = test system: EKVX
UACC-257 = test system: UACC-257
OVCAR-3 = test system: OVCAR-3
SR = test system: SR
LOX IMVI = test system: LOX IMVI
NCI-H23 = test system: NCI-H23
MOLT-4 = test system: MOLT-4
UO-31 = test system: UO-31
CAKI-1 = test system: CAKI-1
IGROV-1 = test system: IGROV-1
RPMI-8226 = test system: RPMI-8226
U-251 = test system: U-251
SNB-75 = test system: SNB-75
K562 = test system: K562
SF-539 = test system: SF-539
OVCAR-8 = test system: OVCAR-8
COLO 205 = test system: COLO 205
NCI-H460 = test system: NCI-H460
RXF 393 = test system: RXF 393
SK-OV-3 = test system: SK-OV-3
BT-549 = test system: BT-549
A549 = test system: A549
SW-620 = test system: SW-620
HL-60 = test system: HL-60
NCI/ADR-RES = test system: NCI/ADR-RES
T47D = test system: T47D
SN12C = test system: SN12C
MDA-MB-231 = test system: MDA-MB-231
SF-268 = test system: SF-268
ACHN = test system: ACHN
HCT-116 = test system: HCT-116
HOP-62 = test system: HOP-62
TK-10 = test system: TK-10
NCI-H226 = test system: NCI-H226
Malme-3M = test system: Malme-3M
M14 = test system: M14
SK-MEL-2 = test system: SK-MEL-2
PC-3 = test system: PC-3
HOP-92 = test system: HOP-92

## CN1CCN(Cc2ccccc2)CC1CC#N (stereo not given)
UACC-62
  GI50: > 100 µM (inactive)
SK-MEL-5
  GI50: > 100 µM (inactive)
HCT-15
  GI50: > 100 µM
KM12
  GI50: > 100 µM (inactive)
OVCAR-4
  GI50: > 100 µM (inactive)
SF-295
  GI50: > 100 µM (inactive)
786-0
  GI50: > 100 µM (inactive)
SNB-19
  GI50: > 100 µM (inactive)
CCRF-CEM
  GI50: > 100 µM (inactive)
HT-29
  GI50: > 100 µM (inactive)
DU-145
  GI50: > 100 µM (inactive)
MDA-N
  GI50: > 100 µM (inactive)
OVCAR-5
  GI50: > 100 µM (inactive)
MCF7
  GI50: > 100 µM (inactive)
HCC 2998
  GI50: > 100 µM (inactive)
SK-MEL-28
  GI50: > 100 µM (inactive)
MDA-MB-435
  GI50: > 100 µM (inactive)
A498
  GI50: > 100 µM (inactive)
EKVX
  GI50: > 100 µM (inactive)
UACC-257
  GI50: > 100 µM (inactive)
OVCAR-3
  GI50: > 100 µM (inactive)
SR
  GI50: > 100 µM (inactive)
LOX IMVI
  GI50: > 100 µM (inactive)
NCI-H23
  GI50: > 100 µM (inactive)
MOLT-4
  GI50: > 100 µM (inactive)
UO-31
  GI50: > 100 µM (inactive)
CAKI-1
  GI50: > 100 µM (inactive)
IGROV-1
  GI50: > 100 µM (inactive)
RPMI-8226
  GI50: > 100 µM (inactive)
U-251
  GI50: > 100 µM (inactive)
SNB-75
  GI50: > 100 µM (inactive)
K562
  GI50: > 100 µM (inactive)
SF-539
  GI50: > 100 µM (inactive)
OVCAR-8
  GI50: > 100 µM (inactive)
COLO 205
  GI50: > 100 µM (inactive)
NCI-H460
  GI50: > 100 µM (inactive)
RXF 393
  GI50: > 100 µM (inactive)
SK-OV-3
  GI50: > 100 µM (inactive)
BT-549
  GI50: > 100 µM (inactive)
A549
  GI50: > 100 µM (inactive)
SW-620
  GI50: > 100 µM (inactive)
HL-60
  GI50: > 100 µM (inactive)
NCI/ADR-RES
  GI50: > 100 µM (inactive)
T47D
  GI50: > 100 µM (inactive)
SN12C
  GI50: > 100 µM (inactive)
MDA-MB-231
  GI50: > 100 µM (inactive)
SF-268
  GI50: > 100 µM (inactive)
ACHN
  GI50: > 100 µM (inactive)
HCT-116
  GI50: > 100 µM (inactive)
HOP-62
  GI50: > 100 µM (inactive)
TK-10
  GI50: > 100 µM (inactive)
NCI-H226
  GI50: > 100 µM (inactive)
Malme-3M
  GI50: > 100 µM (inactive)

## Clc1ccc(/C=C/c2nc(-c3ccccc3)cn3c2nc2ccccc23)cc1Cl
UACC-62
  GI50: > 100 µM (inactive)
SK-MEL-5
  GI50: 50.2 µM (inactive)
HCT-15
  GI50: 34.3 µM
M14
  GI50: 56.4 µM (inactive)
KM12
  GI50: 31.4 µM (inactive)
OVCAR-4
  GI50: 40.9 µM (inactive)
786-0
  GI50: 37.5 µM (inactive)
SNB-19
  GI50: 59.6 µM (inactive)
CCRF-CEM
  GI50: 20.1 µM (inactive)
SK-MEL-2
  GI50: > 100 µM (inactive)
HT-29
  GI50: 37.3 µM (inactive)
DU-145
  GI50: > 100 µM (inactive)
MDA-N
  GI50: 60 µM (inactive)
OVCAR-5
  GI50: > 100 µM (inactive)
MCF7
  GI50: 34.8 µM (inactive)
HCC 2998
  GI50: 43.5 µM (inactive)
PC-3
  GI50: 62.4 µM (inactive)
SK-MEL-28
  GI50: 65.8 µM (inactive)
MDA-MB-435
  GI50: 35.3 µM (inactive)
A498
  GI50: > 100 µM (inactive)
EKVX
  GI50: 40.3 µM (inactive)
UACC-257
  GI50: > 100 µM (inactive)
OVCAR-3
  GI50: 31.9 µM (inactive)
SR
  GI50: 33.7 µM (inactive)
LOX IMVI
  GI50: 59.8 µM (inactive)
NCI-H23
  GI50: 31.2 µM (inactive)
MOLT-4
  GI50: 46.9 µM (inactive)
UO-31
  GI50: 58.1 µM (inactive)
IGROV-1
  GI50: 36.1 µM (inactive)
RPMI-8226
  GI50: 41.9 µM (inactive)
U-251
  GI50: 42 µM (inactive)
K562
  GI50: 43.6 µM (inactive)
SF-539
  GI50: > 100 µM (inactive)
COLO 205
  GI50: > 100 µM (inactive)
NCI-H460
  GI50: 32.7 µM (inactive)
HOP-92
  GI50: 70 µM (inactive)
RXF 393
  GI50: 50.7 µM (inactive)
SK-OV-3
  GI50: > 100 µM (inactive)
BT-549
  GI50: 61.7 µM (inactive)
A549
  GI50: 59.6 µM (inactive)
SW-620
  GI50: 41.6 µM (inactive)
HL-60
  GI50: 19.6 µM (inactive)
NCI/ADR-RES
  GI50: 55.6 µM (inactive)
T47D
  GI50: 41.7 µM (inactive)
SN12C
  GI50: 38.1 µM (inactive)
MDA-MB-231
  GI50: > 100 µM (inactive)
SF-268
  GI50: 59 µM (inactive)
ACHN
  GI50: 49.5 µM (inactive)
HCT-116
  GI50: 27.7 µM (inactive)
HOP-62
  GI50: 59.2 µM (inactive)
TK-10
  GI50: 56.6 µM (inactive)
NCI-H226
  GI50: > 100 µM (inactive)
